Some test systems named below: 786-0 renal; CAKI-1 renal; HCT-15 colon; HL-60(TB) leukemia; HOP-92 NSCLC; IGROV1 ovarian; SF-268 CNS; SK-MEL-2 melanoma; SK-MEL-5 melanoma; UO-31 renal.
Common to all, as to test: growth of human tumour cells (NCI), 48 h

Each structure is given as a SMILES string. Several values for one entry are separate records, joined by “and”; a condition that tells them apart may be missing. Equal entries are not always repeated.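 The compound was tested at five concentrations on cells cultured in 96-well plates, with a 48-hour exposure period. GI50: concentration for 50% inhibition of growth. Definition used: TGI = concentration required for complete inhibition of growth.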

As for `COc1ccccc1N1CCN(CCCn2c(=O)c3c(OC)nc(C)cc3c(=O)n2-c2ccccc2)CC1`, the GI50 in the assay with 786-0 renal, with CAKI-1 renal, with HCT-15 colon, with HL-60(TB) leukemia, with HOP-92 NSCLC and in the assay on IGROV1 ovarian was above 100000 nM in each case. Besides, the GI50 in the assay on SF-268 CNS, with SK-MEL-2 melanoma, in the assay with SK-MEL-5 melanoma and with UO-31 renal was above 100000 nM each time. Also, the TGI in the assay on 786-0 renal, in the assay with CAKI-1 renal, in the assay with HCT-15 colon, with HL-60(TB) leukemia, in the assay with HOP-92 NSCLC and with IGROV1 ovarian was above 100 µM in each case. Further, the TGI in the assay on SF-268 CNS, in the assay with SK-MEL-2 melanoma, in the assay on SK-MEL-5 melanoma and with UO-31 renal was above 100 µM in each case.

On to `Oc1cc(O)c2c(c1)OC(c1ccc(O)c(O)c1)C(OC1(c3cc(O)c(O)c(O)c3)Oc3cc(O)cc(O)c3C(O)C1O)C2` (stereo not given), for which the TGI in the assay with 786-0 renal was 67.8 µM; in the assay with CAKI-1 renal it was 81.1 µM; in the assay on HCT-15 colon, above 100 µM; in the assay on HL-60(TB) leukemia, 52.8 µM; in the assay on HOP-92 NSCLC it was 84.4 µM; with IGROV1 ovarian it was above 86.2 µM. Moreover, the TGI in the assay with SF-268 CNS was 66.2 µM; in the assay with SK-MEL-2 melanoma, above 69.9 µM; in the assay with SK-MEL-5 melanoma, 34 µM; in the assay with UO-31 renal, 50.2 µM.

Take `CC(=O)c1cc2c(o1)C(=O)c1ccccc1C2=O`: the GI50 in the assay on 786-0 renal was 381 nM and 1210 nM; with CAKI-1 renal it was 1450 nM and 823 nM; in the assay on HCT-15 colon, 166 nM and 179 nM; in the assay with HL-60(TB) leukemia, 241 nM and 271 nM; in the assay on HOP-92 NSCLC it was 2180 nM and 1820 nM; in the assay on IGROV1 ovarian it was 644 nM and 409 nM. The GI50 was 280 nM and 513 nM in the assay on SF-268 CNS; 420 nM and 548 nM with SK-MEL-2 melanoma; 169 nM and 173 nM in the assay with SK-MEL-5 melanoma; 219 nM and 217 nM with UO-31 renal. The TGI in the assay with 786-0 renal is 1.02 µM and 2.71 µM; in the assay with CAKI-1 renal it was 2.93 µM and 2.24 µM; in the assay with HCT-15 colon, 0.365 µM and 0.398 µM; in the assay with HL-60(TB) leukemia, 0.641 µM and 0.773 µM; with HOP-92 NSCLC, 4.24 µM and 3.47 µM; in the assay on IGROV1 ovarian, 1.63 µM and 1.56 µM. In addition, the TGI in the assay on SF-268 CNS is 0.959 µM and 2.3 µM; in the assay with SK-MEL-2 melanoma, 1.29 µM and 2 µM; in the assay with SK-MEL-5 melanoma, 0.31 µM and 0.316 µM; in the assay with UO-31 renal, 0.57 µM and 0.531 µM.

Consider `CC(CC(=O)O)C(C(=O)O)C(=O)O` (stereo not given), for which the TGI in the assay on 786-0 renal, in the assay with CAKI-1 renal, in the assay on HCT-15 colon, with HL-60(TB) leukemia, in the assay on HOP-92 NSCLC and in the assay on IGROV1 ovarian was above 100 µM throughout. In addition, the TGI in the assay on SF-268 CNS, in the assay with SK-MEL-2 melanoma, in the assay with SK-MEL-5 melanoma and in the assay on UO-31 renal was above 100 µM each time.

`Cc1ccc(-c2nc3ccc([N+](=O)[O-])cc3[nH]2)cc1`: the TGI with 786-0 renal, with CAKI-1 renal, in the assay on HCT-15 colon, with HL-60(TB) leukemia, with HOP-92 NSCLC and in the assay on IGROV1 ovarian was above 100 µM throughout. For the same compound, the TGI with SF-268 CNS, in the assay on SK-MEL-2 melanoma, in the assay on SK-MEL-5 melanoma and in the assay with UO-31 renal was above 100 µM throughout.

With `COc1ccc(NC(=O)/C(N=O)=C(/C)O)cc1`, the TGI is above 100 µM in the assay with 786-0 renal; above 100 µM in the assay on CAKI-1 renal; 36.8 µM in the assay on HCT-15 colon; above 100 µM in the assay with HL-60(TB) leukemia; above 100 µM with HOP-92 NSCLC; above 100 µM in the assay with IGROV1 ovarian. Also, the TGI in the assay on SF-268 CNS, in the assay on SK-MEL-2 melanoma, in the assay on SK-MEL-5 melanoma and in the assay on UO-31 renal was above 100 µM throughout.

As for `Cn1cnc([N+](=O)[O-])c1S(=O)(=O)Oc1ccccc1`, the GI50 in the assay on 786-0 renal was 25100 nM; with CAKI-1 renal, 1660 nM; in the assay on HCT-15 colon it was 2740 nM; in the assay with HL-60(TB) leukemia, 12100 nM; in the assay with HOP-92 NSCLC, 5850 nM; with IGROV1 ovarian it was 2210 nM. Besides, the GI50 in the assay with SF-268 CNS was 16500 nM; in the assay with SK-MEL-2 melanoma it was 15500 nM; in the assay with SK-MEL-5 melanoma it was 17300 nM; in the assay on UO-31 renal, 1680 nM. Besides, the TGI was 55.6 µM with 786-0 renal; 3.41 µM in the assay on CAKI-1 renal; above 28.4 µM in the assay with HCT-15 colon; 34.4 µM with HL-60(TB) leukemia; 19.1 µM in the assay with HOP-92 NSCLC; 4.76 µM in the assay on IGROV1 ovarian. Besides, the TGI with SF-268 CNS was 48.2 µM; with SK-MEL-2 melanoma it was 40.9 µM; in the assay on SK-MEL-5 melanoma, 34.2 µM; with UO-31 renal, 3.47 µM.

`O=c1[nH]cc(COCCO)c(=O)[nH]1`: the TGI in the assay with 786-0 renal, in the assay with CAKI-1 renal, with HCT-15 colon, in the assay with HL-60(TB) leukemia, in the assay with HOP-92 NSCLC and with IGROV1 ovarian was above 100 µM in each case. In addition, the TGI in the assay with SF-268 CNS, in the assay with SK-MEL-2 melanoma, in the assay with SK-MEL-5 melanoma and with UO-31 renal was above 100 µM throughout.

The record behind these values is PubChem BioAssay (NCI).
